The assay has as its system MV-4-11 cells. Nature of the assay: Gene expression microarray analysis (Affymetrix PrimeView) and GSEA. It is filed as cell-based, human. Also noted: RFU PODN (11730768_x_at) / Fold change /veh PODN (11730768_x_at) / RFU LINC00158 (11744669_a_at) / Fold change /veh LINC00158 (11744669_a_at) / RFU DUSP10 (11751237_a_at) / Fold change /veh DUSP10 (11751237_a_at) / RFU ID3 (11757404_x_at) / Fold change /veh ID3 (11757404_x_at) / RFU PLEKHG5 (11737974_s_at) / Fold change /veh PLEKHG5 (11737974_s_at) / RFU LRRC4B (11730491_at) / Fold change /veh LRRC4B (11730491_at) / RFU GIMAP4 (11747438_a_at) / Fold change /veh GIMAP4 (11747438_a_at) / RFU KRT8 (11758183_x_at) / Fold change /veh KRT8 (11758183_x_at) / RFU CNN1 (11734310_a_at) / Fold change /veh CNN1 (11734310_a_at) / RFU VPS37D (11726825_at) / Fold change /veh VPS37D (11726825_at) / RFU C10orf10 (11716522_x_at) / Fold change /veh C10orf10 (11716522_x_at) / RFU KIR2DL2 /// KIR2DL4 /// KIR2DL5A /// KIR2DL5B /// KIR2DS1 /// KIR2DS2 /// KIR2DS3 /// KIR2DS4 /// KIR3DL3 /// KIR3DL3 /// KIR3DS1 (11738374_at) / Fold change /veh KIR2DL2 /// KIR2DL4 /// KIR2DL5A /// KIR2DL5B /// KIR2DS1 /// KIR2DS2 /// KIR2DS3 /// KIR2DS4 /// KIR3DL3 /// KIR3DL3 /// KIR3DS1 (11738374_at) / RFU C1QL1 (11718748_at) / Fold change /veh C1QL1 (11718748_at) / RFU TMPRSS4 (11747572_a_at) / Fold change /veh TMPRSS4 (11747572_a_at) / RFU HAMP (11756126_x_at) / Fold change /veh HAMP (11756126_x_at) / RFU RNFT2 (11725882_a_at) / Fold change /veh RNFT2 (11725882_a_at) / RFU NR4A2 (11747474_a_at) / Fold change /veh NR4A2 (11747474_a_at) / RFU ABCC12 (11746883_a_at) / Fold change /veh ABCC12 (11746883_a_at) / RFU TMEM136 (11760407_x_at) / Fold change /veh TMEM136 (11760407_x_at) / RFU CLDN22 /// WWC2 (11732394_at) / Fold change /veh CLDN22 /// WWC2 (11732394_at) / RFU HLA-DPB1 (11760878_x_at) / Fold change /veh HLA-DPB1 (11760878_x_at) / RFU SPINT1 (11716480_a_at) / Fold change /veh SPINT1 (11716480_a_at) / RFU GAP43 (11754022_s_at) / Fold change /veh GAP43 (11754022_s_at) / RFU A4GNT (11735810_at) / Fold change /veh A4GNT (11735810_at) / RFU PRB3 (11715151_x_at) / Fold change /veh PRB3 (11715151_x_at) / RFU TUBB4B (11761932_at) / Fold change /veh TUBB4B (11761932_at) / RFU CAPN14 (11732068_a_at) / Fold change /veh CAPN14 (11732068_a_at) / RFU TMCC2 (11721928_a_at) / Fold change /veh TMCC2 (11721928_a_at) / RFU IRGQ (11745062_a_at) / Fold change /veh IRGQ (11745062_a_at) / RFU FAM174B (11720279_a_at) / Fold change /veh FAM174B (11720279_a_at) / RFU TMPRSS4 (11748680_a_at) / Fold change /veh TMPRSS4 (11748680_a_at) / RFU FAM212B (11763350_a_at) / Fold change /veh FAM212B (11763350_a_at) / RFU PLEKHG5 (11743358_a_at) / Fold change /veh PLEKHG5 (11743358_a_at) / RFU ZSCAN30 (11745921_a_at) / Fold change /veh ZSCAN30 (11745921_a_at) / RFU CMKLR1 (11741424_a_at) / Fold change /veh CMKLR1 (11741424_a_at) / RFU LOC101060620 /// MAPK8IP1 (11723275_at) / Fold change /veh LOC101060620 /// MAPK8IP1 (11723275_at) / RFU SPTSSB (11747773_x_at) / Fold change /veh SPTSSB (11747773_x_at) / RFU PRSS12 (11739890_at) / Fold change /veh PRSS12 (11739890_at) / RFU BIN1 (11741810_x_at) / Fold change /veh BIN1 (11741810_x_at) / RFU WNT11 (11732464_a_at) / Fold change /veh WNT11 (11732464_a_at) / RFU C10orf10 (11716521_a_at) / Fold change /veh C10orf10 (11716521_a_at) / RFU C5orf56 (11738089_at) / Fold change /veh C5orf56 (11738089_at) / RFU CYB561 (11721691_x_at) / Fold change /veh CYB561 (11721691_x_at) / RFU ANKRD19P (11752326_a_at) / Fold change /veh ANKRD19P (11752326_a_at) / RFU OR2T12 /// OR2T33 /// OR2T8 (11738714_s_at) / Fold change /veh OR2T12 /// OR2T33 /// OR2T8 (11738714_s_at) / RFU VCAN (11748164_a_at) / Fold change /veh VCAN (11748164_a_at) / RFU JSRP1 (11732532_at) / Fold change /veh JSRP1 (11732532_at) / RFU KRTAP10-11 (11738290_x_at) / Fold change /veh KRTAP10-11 (11738290_x_at) / RFU MYO3A (11730013_a_at) / Fold change /veh MYO3A (11730013_a_at) / RFU EBF3 (11725865_a_at) / Fold change /veh EBF3 (11725865_a_at) / RFU CAMK2N1 (11719241_x_at) / Fold change /veh CAMK2N1 (11719241_x_at) / RFU C5orf56 (11738088_a_at) / Fold change /veh C5orf56 (11738088_a_at) / RFU OLFML3 (11715873_a_at) / Fold change /veh OLFML3 (11715873_a_at) / RFU LOC100653217 /// NTM (11731650_a_at) / Fold change /veh LOC100653217 /// NTM (11731650_a_at) / RFU MAPK11 (11762145_a_at) / Fold change /veh MAPK11 (11762145_a_at) / RFU FIZ1 (11724087_x_at) / Fold change /veh FIZ1 (11724087_x_at) / RFU OASL (11726364_x_at) / Fold change /veh OASL (11726364_x_at) / RFU SOX15 (11748057_x_at) / Fold change /veh SOX15 (11748057_x_at) / RFU CD79A (11719716_a_at) / Fold change /veh CD79A (11719716_a_at) / RFU HIST1H1D (11736915_at) / Fold change /veh HIST1H1D (11736915_at) / RFU CASKIN2 (11723855_a_at) / Fold change /veh CASKIN2 (11723855_a_at) / RFU LOC730098 (11760151_x_at) / Fold change /veh LOC730098 (11760151_x_at) / RFU OR4N2 (11742367_at) / Fold change /veh OR4N2 (11742367_at) / RFU PRRT2 (11749266_a_at) / Fold change /veh PRRT2 (11749266_a_at) / RFU SNX32 (11753110_a_at) / Fold change /veh SNX32 (11753110_a_at) / RFU CDHR5 (11726645_a_at) / Fold change /veh CDHR5 (11726645_a_at) / RFU RCAN1 (11760418_a_at) / Fold change /veh RCAN1 (11760418_a_at) / RFU FAM167A (11723789_a_at) / Fold change /veh FAM167A (11723789_a_at) / RFU FAM26E (11764081_at) / Fold change /veh FAM26E (11764081_at) / RFU ISYNA1 (11749810_s_at) / Fold change /veh ISYNA1 (11749810_s_at) / RFU ACY1 (11761880_at) / Fold change /veh ACY1 (11761880_at) / RFU 11764098_at / Fold change /veh 11764098_at / RFU SAMD14 (11745864_x_at) / Fold change /veh SAMD14 (11745864_x_at) / RFU NPB (11741838_a_at) / Fold change /veh NPB (11741838_a_at) / RFU TMPRSS6 (11731388_a_at) / Fold change /veh TMPRSS6 (11731388_a_at) / RFU KRTAP10-2 (11738614_at) / Fold change /veh KRTAP10-2 (11738614_at) / RFU ARHGAP8 /// PRR5-ARHGAP8 (11727945_x_at) / Fold change /veh ARHGAP8 /// PRR5-ARHGAP8 (11727945_x_at) / RFU KRTAP5-7 /// NADSYN1 (11734609_at) / Fold change /veh KRTAP5-7 /// NADSYN1 (11734609_at) / RFU RASL12 (11751679_a_at) / Fold change /veh RASL12 (11751679_a_at) / RFU CDKN2B (11736163_a_at) / Fold change /veh CDKN2B (11736163_a_at) / RFU PRF1 (11729649_at) / Fold change /veh PRF1 (11729649_at) / RFU, ZNF638 /// ZNF638-IT1 / Fold change vs veh, ZNF638 /// ZNF638-IT1 / RFU, PANK3 / Fold change vs veh, PANK3 / RFU, SH3YL1 / Fold change vs veh, SH3YL1 / RFU, ZEB2 / Fold change vs veh, ZEB2 / RFU, NRIP1 / Fold change vs veh, NRIP1 / RFU, PTTG1IP / Fold change vs veh, PTTG1IP / RFU, CAPN2 / Fold change vs veh, CAPN2 / RFU, MED14 / Fold change vs veh, MED14 / RFU, SNORA58 / Fold change vs veh, SNORA58 / RFU, C1orf63 / Fold change vs veh, C1orf63 / RFU, LRRFIP1 / Fold change vs veh, LRRFIP1 / RFU, NDUFAF7 / Fold change vs veh, NDUFAF7 / RFU, SLC12A2 / Fold change vs veh, SLC12A2 / RFU, IBTK / Fold change vs veh, IBTK / RFU, ESF1 / Fold change vs veh, ESF1 / Fold change vs veh, TMEM50B / RFU, TAOK1 / Fold change vs veh, TAOK1 / RFU, ACBD3 / Fold change vs veh, ACBD3 / RFU, TMA16 / Fold change vs veh, TMA16 / RFU, RWDD3 / Fold change vs veh, RWDD3 / RFU, BCAT1 / Fold change vs veh, BCAT1 / RFU, EDEM3 / Fold change vs veh, EDEM3 / RFU, TMEM33 / Fold change vs veh, TMEM33 / RFU, WDR75 / Fold change vs veh, WDR75 / RFU, AHCTF1 / Fold change vs veh, AHCTF1 / RFU, TFRC / Fold change vs veh, TFRC / RFU, ZDHHC17 / Fold change vs veh, ZDHHC17 / RFU, NOM1 / Fold change vs veh, NOM1 / RFU, ARL8B / Fold change vs veh, ARL8B / RFU, ZBTB11 / Fold change vs veh, ZBTB11 / RFU, TAMM41 / Fold change vs veh, TAMM41 / RFU, KIAA1704 /// LOC100996395 / Fold change vs veh, KIAA1704 /// LOC100996395 / RFU, ING1 / Fold change vs veh, ING1 / RFU, TRMT61B / Fold change vs veh, TRMT61B / RFU, FUBP3 / Fold change vs veh, FUBP3 / RFU, TP53 / Fold change vs veh, TP53 / RFU, TNKS2 / Fold change vs veh, TNKS2 / RFU, ZFP14 / Fold change vs veh, ZFP14 / RFU, ACTR2 / Fold change vs veh, ACTR2 / RFU, PPP3R1 / Fold change vs veh, PPP3R1 / RFU, PIK3R1 / Fold change vs veh, PIK3R1 / RFU, HNRNPA1 / Fold change vs veh, HNRNPA1 / RFU, RNF170 / Fold change vs veh, RNF170 / RFU, ZNF28 / Fold change vs veh, ZNF28 / RFU, RNGTT / Fold change vs veh, RNGTT / RFU, OGT / Fold change vs veh, OGT / RFU, BRD1 / Fold change vs veh, BRD1 / RFU, MARS / Fold change vs veh, MARS / RFU, ZNF655 / Fold change vs veh, ZNF655 / RFU, FAHD1 / Fold change vs veh, FAHD1 / RFU, BDP1 / Fold change vs veh, BDP1 / RFU, LRRCC1 / Fold change vs veh, LRRCC1 / RFU, ARID1A / Fold change vs veh, ARID1A / RFU, ZNF146 / Fold change vs veh, ZNF146 / RFU, ZNF330 / Fold change vs veh, ZNF330 / RFU, GPN3 / Fold change vs veh, GPN3 / RFU, C9orf123 / Fold change vs veh, C9orf123 / RFU, N4BP2L2 / Fold change vs veh, N4BP2L2 / RFU, ARFIP1 / Fold change vs veh, ARFIP1 / RFU, FAM179B / Fold change vs veh, FAM179B / RFU, BCL10 / Fold change vs veh, BCL10 / RFU, UHRF1BP1L / Fold change vs veh, UHRF1BP1L / RFU, BET1 / Fold change vs veh, BET1 / RFU, CNOT2 / Fold change vs veh, CNOT2 / RFU, ZNF268 / Fold change vs veh, ZNF268 / Fold change vs veh, ZNF507 / RFU, DGCR2 / Fold change vs veh, DGCR2 / RFU, WDSUB1 / Fold change vs veh, WDSUB1 / Fold change vs veh, HSP90B1 /// MIR3652 / RFU, ADSS / Fold change vs veh, ADSS / RFU, GK / Fold change vs veh, GK / RFU, ZNF148 / Fold change vs veh, ZNF148 / RFU, TAF9 / Fold change vs veh, TAF9 / RFU, SLC1A5 / Fold change vs veh, SLC1A5 / RFU, SLMO2 / Fold change vs veh, SLMO2 / RFU, ABCC4 / Fold change vs veh, ABCC4 / RFU, LOC101060439 /// RAP1B / Fold change vs veh, LOC101060439 /// RAP1B / RFU, RFX7 / Fold change vs veh, RFX7 / RFU, GTPBP10 / Fold change vs veh, GTPBP10 / RFU, CNEP1R1 / Fold change vs veh, CNEP1R1 / RFU, BIVM-ERCC5 /// ERCC5 / Fold change vs veh, BIVM-ERCC5 /// ERCC5 / RFU, ILF3 / Fold change vs veh, ILF3 / RFU 11762660_at / Fold change /veh 11762660_at / RFU VCAN (11757783_s_at) / Fold change /veh VCAN (11757783_s_at) / RFU DDX43 (11728927_at) / Fold change /veh DDX43 (11728927_at) / RFU KRT8 (11758188_x_at) / Fold change /veh KRT8 (11758188_x_at) / RFU NKD1 (11759106_at) / Fold change /veh NKD1 (11759106_at) / RFU SRD5A1 (11742802_a_at) / Fold change /veh SRD5A1 (11742802_a_at) / RFU TPSAB1 /// TPSB2 (11721975_s_at) / Fold change /veh TPSAB1 /// TPSB2 (11721975_s_at) / RFU GSTM3 (11746129_a_at) / Fold change /veh GSTM3 (11746129_a_at) / RFU IL23R (11737362_x_at) / Fold change /veh IL23R (11737362_x_at) / RFU TMEM51 (11727254_a_at) / Fold change /veh TMEM51 (11727254_a_at) / RFU PIWIL2 (11732686_x_at) / Fold change /veh PIWIL2 (11732686_x_at) / RFU ORM1 (11744905_x_at) / Fold change /veh ORM1 (11744905_x_at) / RFU CCDC152 (11743942_at) / Fold change /veh CCDC152 (11743942_at) / RFU ECM1 (11717891_a_at) / Fold change /veh ECM1 (11717891_a_at) / RFU IL23R (11748794_a_at) / Fold change /veh IL23R (11748794_a_at) / RFU TNFAIP8L3 (11732012_x_at) / Fold change /veh TNFAIP8L3 (11732012_x_at) / RFU MBOAT4 (11741988_at) / Fold change /veh MBOAT4 (11741988_at) / RFU 11764193_at / Fold change /veh 11764193_at / RFU TMEM53 (11763286_at) / Fold change /veh TMEM53 (11763286_at) / RFU MAGEB2 (11727129_at) / Fold change /veh MAGEB2 (11727129_at) / RFU TMEM200A (11744735_a_at) / Fold change /veh TMEM200A (11744735_a_at) / RFU CCDC152 (11751479_a_at) / Fold change /veh CCDC152 (11751479_a_at) / RFU FAM211A (11726209_a_at) / Fold change /veh FAM211A (11726209_a_at) / RFU RGS16 (11746705_a_at) / Fold change /veh RGS16 (11746705_a_at) / RFU VCAN (11755009_s_at) / Fold change /veh VCAN (11755009_s_at) / RFU RHOB (11743442_s_at) / Fold change /veh RHOB (11743442_s_at) / RFU RGS16 (11720943_a_at) / Fold change /veh RGS16 (11720943_a_at) / RFU RGS16 (11720944_at) / Fold change /veh RGS16 (11720944_at) / RFU, VPS4B / Fold change vs veh, VPS4B / RFU, CREB1 / Fold change vs veh, CREB1 / RFU, DNAJC13 / Fold change vs veh, DNAJC13 / RFU, GNAQ / Fold change vs veh, GNAQ / RFU, CDK5R1 / Fold change vs veh, CDK5R1 / RFU, ZRANB3 / Fold change vs veh, ZRANB3 / RFU, CUL4A / Fold change vs veh, CUL4A / RFU, CCNY / Fold change vs veh, CCNY / RFU, UFL1 / Fold change vs veh, UFL1 / RFU, COG3 / Fold change vs veh, COG3 / RFU, DIAPH2 / Fold change vs veh, DIAPH2 / RFU, SKA2 / Fold change vs veh, SKA2 / RFU, AFF3 / Fold change vs veh, AFF3 / RFU, LMF1 / Fold change vs veh, LMF1 / RFU, IPO11 / Fold change vs veh, IPO11 / RFU, DFFB / Fold change vs veh, DFFB / RFU, FOXP1 / Fold change vs veh, FOXP1 / RFU, CARD8 / Fold change vs veh, CARD8 / RFU, STRN3 / Fold change vs veh, STRN3 / RFU, ADK / Fold change vs veh, ADK / RFU, RASSF2 / Fold change vs veh, RASSF2 / RFU, WIPF1 / Fold change vs veh, WIPF1 / RFU, LARP1B / Fold change vs veh, LARP1B / RFU, RASA1 / Fold change vs veh, RASA1 / RFU, RB1 / Fold change vs veh, RB1 / RFU, PPFIA1 / Fold change vs veh, PPFIA1 / RFU, MAT2A / Fold change vs veh, MAT2A / RFU, CCT5 / Fold change vs veh, CCT5 / RFU, WDR92 / Fold change vs veh, WDR92 / RFU, CUX1 / Fold change vs veh, CUX1 / RFU, TTC7A / Fold change vs veh, TTC7A / RFU, TMEM135 / Fold change vs veh, TMEM135 / RFU, DEPTOR / Fold change vs veh, DEPTOR / RFU, CPM / Fold change vs veh, CPM / RFU, DNAJB6 / Fold change vs veh, DNAJB6 / RFU, CACNA2D3 / Fold change vs veh, CACNA2D3 / RFU, DTX4 / Fold change vs veh, DTX4 / RFU, TFCP2 / Fold change vs veh, TFCP2 / RFU, GMCL1 /// GMCL1P1 / Fold change vs veh, GMCL1 /// GMCL1P1 / RFU, AEBP2 / Fold change vs veh, AEBP2 / RFU, SNHG1 /// SNORD22 /// SNORD25 /// SNORD26 /// SNORD27 /// SNORD28 /// SNORD29 /// SNORD31 / Fold change vs veh, SNHG1 /// SNORD22 /// SNORD25 /// SNORD26 /// SNORD27 /// SNORD28 /// SNORD29 /// SNORD31 / Fold change (Aza/veh), C12orf56 (ProbeSet 11735607_a_at) / Fold change (ACY-1035/veh), C12orf56 (ProbeSet 11735607_a_at) / Fold change (Aza/veh), FGFR1OP (ProbeSet 11751329_s_at) / Fold change (ACY-1035/veh), FGFR1OP (ProbeSet 11751329_s_at) / Fold change (Aza/veh), VPS36 (ProbeSet 11739960_a_at) / Fold change (ACY-1035/veh), VPS36 (ProbeSet 11739960_a_at) / RFU SYPL1 (11715823_x_at) / Fold change /veh SYPL1 (11715823_x_at) / RFU IGFBP7 (11715501_s_at) / Fold change /veh IGFBP7 (11715501_s_at) / RFU REEP3 (11722064_at) / Fold change /veh REEP3 (11722064_at) / RFU IGLL1 (11728026_x_at) / Fold change /veh IGLL1 (11728026_x_at): dose or concentration left out as unconfirmed. As to conditions: ProbeSet 11726661_s_at; LIST B.

The structures appear in SMILES notation.

With `Nc1ccc(-c2cccs2)cc1NC(=O)c1ccc2c(c1)cc(C1CC1)n2CCN1CCOCC1` [ACY-1035], the “RFU, GPN3” value was determined as 242.51 RFU.

These data come from paper PMC5218480 (PLoS ONE, 2017).
